Test results published in patent US4081434A, “Novel analogs of β-endorphin” (Hoffmann-La Roche Inc., priority 1977, dated 1978).
Ends that are not written are not given here.

These compounds were tested on guinea pig ileum (assay: guinea pig ileum bioassay of Kosterlitz et al. (opiate agonist activity)). Conditions: guinea pig ileum assay for opiate agonist activity.
Type: cell-based
Description: Thus, for example, in the guinea pig ileum bioassay of Kosterlitz et al. Brit. J. Pharmacol. 39, 398 (1970) the IC50 (50% inhibiting concentration) of representative β-endorphins and the relative potency of β-endorphin fragments are as follows.

Compound | more potent than parent compound βh -endorphin
YGGFMTLFKNAIIKNAYKKGE [βh-endorphin-(1-5)-(16-31), H--tyr--Gly--Gly--Phe--Met--Thr--Leu--Phe--Lys--Asn--Ala--Ile--Ile--Lys--Asn--Ala--Tyr--Lys--Lys--Gly--Glu--OH] | about 35%

Same assay, conditions: guinea pig ileum bioassay; βh and βc -endorphin = 1.00

Compound | relative potency
CC[C@H](C)[C@H](NC(=O)[C@H](C)NC(=O)[C@H](CC(N)=O)NC(=O)[C@H](CCCCN)NC(=O)[C@H](Cc1ccccc1)NC(=O)[C@H](CC(C)C)NC(=O)[C@@H](NC(=O)[C@@H](NC(=O)[C@H](CC(C)C)NC(=O)[C@@H]1CCCN1C(=O)[C@@H](NC(=O)[C@H](CCC(N)=O)NC(=O)[C@H](CO)NC(=O)[C@H](CCCCN)NC(=O)[C@H](CCC(=O)O)NC(=O)[C@H](CO)NC(=O)[C@@H](NC(=O)[C@H](CCSC)NC(=O)[C@H](Cc1ccccc1)NC(=O)CNC(=O)CNC(=O)[C@@H](N)Cc1ccc(O)cc1)[C@@H](C)O)[C@@H](C)O)C(C)C)[C@@H](C)O)C(=O)N[C@H](C(=O)N[C@@H](CCCCN)C(=O)N[C@@H](CC(N)=O)C(=O)N[C@@H](C)C(=O)N[C@@H](Cc1ccc(O)cc1)C(=O)N[C@@H](CCCCN)C(=O)N[C@@H](CCCCN)C(=O)NCC(=O)N[C@@H](CCC(=O)O)C(=O)O)[C@@H](C)CC [βh -endorphin] | 1.00
YGGFMTLFKNAIIKNAYKKGE [βh-endorphin-(1-5)-(16-31), H--tyr--Gly--Gly--Phe--Met--Thr--Leu--Phe--Lys--Asn--Ala--Ile--Ile--Lys--Asn--Ala--Tyr--Lys--Lys--Gly--Glu--OH] | 1.35
YGGFMTSEKSQTPLVTLFKNAIIKNAHKKGQ [βc -endorphin] | 1.00
met-enkephalin | 0.26
βc -endorphin-(6-31): fragment 6-31 of camel β-endorphin (TSEKSQTPLVTLFKNAIIKNAHKKGQ; Beta-endorphin; UniProt P01203 6-31, looked up, fragment) | 0.04
βc -endorphin-(20-31): fragment 20-31 of camel β-endorphin (NAIIKNAHKKGQ; Beta-endorphin; UniProt P01203 20-31, looked up, fragment) | 0.001
